{
  "source": "patent US20140107021A1",
  "about": "(priority 2010, published 2014)",
  "key": {"GLP-1 receptor": {"target": "T1, GLP-1 receptor (Homo sapiens, UniProt P43220)", "T1 construct": "expressed in transfected cells; host or cells: HEK293", "T1 sequence (P43220 24-463)": "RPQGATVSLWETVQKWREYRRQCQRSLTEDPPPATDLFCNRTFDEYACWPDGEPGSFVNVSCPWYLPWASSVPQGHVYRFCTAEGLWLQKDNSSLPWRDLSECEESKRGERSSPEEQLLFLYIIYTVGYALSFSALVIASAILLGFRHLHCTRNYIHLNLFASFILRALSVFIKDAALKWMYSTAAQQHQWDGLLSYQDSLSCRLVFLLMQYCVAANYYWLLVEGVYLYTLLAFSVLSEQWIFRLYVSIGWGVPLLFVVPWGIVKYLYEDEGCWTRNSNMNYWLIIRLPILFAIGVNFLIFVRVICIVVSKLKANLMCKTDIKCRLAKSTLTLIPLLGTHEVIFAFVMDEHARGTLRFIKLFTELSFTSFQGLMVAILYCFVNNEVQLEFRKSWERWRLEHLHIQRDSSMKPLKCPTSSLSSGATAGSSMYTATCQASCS", "assay": "cAMP induction at the GLP-1 receptor (agonist activity), firefly luciferase reporter assay in HEK293 cells", "assay_type": "cell-based", "details": "Table 3; read-out: GLP-1R EC50", "source_text": "(§1) HEK293 cells co-transfected with the receptor and luciferase gene linked to a cAMP responsive element were employed for the bioassay.\n(§2) All EC50s and IC50s are reported in the following examples in nM, unless indicated otherwise."}, "GIP receptor": {"target": "T2, GIP receptor (Homo sapiens, UniProt P48546)", "T2 construct": "expressed in transfected cells; host or cells: HEK293", "T2 sequence (P48546 22-466)": "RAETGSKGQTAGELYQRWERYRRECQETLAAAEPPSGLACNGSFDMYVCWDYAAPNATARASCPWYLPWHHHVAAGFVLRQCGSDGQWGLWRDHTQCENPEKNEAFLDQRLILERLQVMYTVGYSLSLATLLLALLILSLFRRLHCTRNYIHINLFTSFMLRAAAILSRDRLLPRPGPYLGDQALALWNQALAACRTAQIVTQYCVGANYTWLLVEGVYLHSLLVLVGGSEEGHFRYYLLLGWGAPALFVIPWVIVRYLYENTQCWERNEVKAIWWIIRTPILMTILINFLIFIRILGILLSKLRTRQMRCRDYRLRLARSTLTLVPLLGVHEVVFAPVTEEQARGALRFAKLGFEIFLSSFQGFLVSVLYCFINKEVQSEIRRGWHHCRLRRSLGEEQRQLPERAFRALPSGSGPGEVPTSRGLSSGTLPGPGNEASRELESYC", "assay": "cAMP induction at the GIP receptor (agonist activity), luciferase reporter assay in HEK293 cells", "assay_type": "cell-based", "details": "read-out: GIPR EC50", "source_text": "as §1, §2"}, "[1]": {"assay_type": "in vivo, C57Bl/6 mice", "details": "30 nmol/kg subcutaneously daily for one week"}, "[2]": {"assay": "Example 10: MT-263 under varied administration regimen in diet-induced obesity mice, 6 day study", "assay_type": "in vivo, Diet-induced obesity (DIO) mice", "details": "injected on a daily basis (10 nmol/kg), compared with every 2 or 3 days", "experimental": "Diet-induced obesity (DIO) mice (N=8, 10 mice per group) were injected during the course of the 6 day study as follows: […]"}, "glucagon receptor": {"target": "glucagon receptor (Homo sapiens, UniProt P47871)", "sequence (P47871 26-477)": "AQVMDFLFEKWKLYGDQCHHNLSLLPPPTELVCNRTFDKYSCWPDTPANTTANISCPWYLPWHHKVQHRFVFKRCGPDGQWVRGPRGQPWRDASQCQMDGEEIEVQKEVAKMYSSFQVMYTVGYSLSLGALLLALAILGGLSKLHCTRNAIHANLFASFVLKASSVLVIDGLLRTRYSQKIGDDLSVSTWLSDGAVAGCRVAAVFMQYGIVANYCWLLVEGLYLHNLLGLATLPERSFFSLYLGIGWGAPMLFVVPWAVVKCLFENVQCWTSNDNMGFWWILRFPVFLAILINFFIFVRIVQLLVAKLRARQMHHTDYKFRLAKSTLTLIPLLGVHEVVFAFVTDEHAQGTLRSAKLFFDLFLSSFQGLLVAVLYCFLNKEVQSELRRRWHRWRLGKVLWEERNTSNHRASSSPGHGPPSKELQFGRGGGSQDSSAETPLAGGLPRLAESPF", "assay": "cAMP induction at the glucagon receptor (agonist activity), luciferase reporter assay in HEK293 cells", "assay_type": "cell-based", "design": "expressed in transfected cells; host or cells: HEK293", "details": "read-out: GR EC50", "source_text": "as §1, §2"}},
  "note": "Where two headings read alike, the source gives them in different places.",
  "data": [
    {"compound": "CC[C@H](C)[C@H](NC(=O)[C@H](CO)NC(=O)[C@H](Cc1ccc(O)cc1)NC(=O)[C@H](CC(=O)O)NC(=O)[C@H](CO)NC(=O)[C@@H](NC(=O)[C@H](Cc1ccccc1)NC(=O)[C@@H](NC(=O)CNC(=O)[C@H](CCC(=O)O)NC(=O)C(C)(C)NC(=O)[C@@H](N)Cc1ccc(O)cc1)[C@@H](C)O)[C@@H](C)O)C(=O)N[C@@H](Cc1ccc(O)cc1)C(=O)N[C@@H](CC(C)C)C(=O)N[C@@H](CC(=O)O)C(=O)N[C@@H](CCCCN)C(=O)N[C@@H](CCC(N)=O)C(=O)N[C@@H](C)C(=O)N[C@@H](C)C(=O)NC(C)(C)C(=O)N[C@@H](CCC(=O)O)C(=O)N[C@@H](Cc1ccccc1)C(=O)N[C@H](C(=O)N[C@@H](CC(N)=O)C(=O)N[C@@H](Cc1c[nH]c2ccccc12)C(=O)N[C@@H](CC(C)C)C(=O)N[C@@H](CC(C)C)C(=O)N[C@@H](C)C(=O)NCC(=O)NCC(=O)N1CCC[C@H]1C(=O)N[C@@H](CO)C(=O)N[C@@H](CO)C(=O)NCC(=O)N[C@@H](C)C(=O)N1CCC[C@H]1C(=O)N1CCC[C@H]1C(=O)N1CCC[C@H]1C(=O)N[C@@H](CO)C(=O)N[C@@H](CCCCN)C(N)=O)C(C)C", "note": "[mt-263, Y1Aib2E3I12K16Q17A18Aib20E21N24-LAG27-29-CEX-K]", "values": [
      {"measurement": "EC50", "setting": "GLP-1 receptor", "value": 0.01, "unit": "nM"},
      {"measurement": "EC50", "setting": "GIP receptor; Table 3", "value": 0.0054, "unit": "nM"},
      {"measurement": "EC50", "setting": "GIP receptor; Table 4", "value": 0.0033, "unit": "nM"},
      {"measurement": "change in blood glucose levels over the course of the 7-day study", "setting": "[1]", "value": "greatest change in blood glucose levels"},
      {"measurement": "weight loss compared with the Exendin-4-like positive control peptide", "setting": "[1]", "value": "substantially greater than the Exendin-4-like positive control peptide"},
      {"measurement": "weight loss over the course of the 7-day study", "setting": "[1]", "value": "significant weight loss"},
      {"measurement": "decrease in blood glucose levels", "setting": "[2]", "value": "biggest decrease in blood glucose levels"},
      {"measurement": "EC50", "setting": "glucagon receptor; Table 3", "value": 4.04, "unit": "nM"},
      {"measurement": "EC50", "setting": "glucagon receptor; Table 4", "value": 3.14, "unit": "nM"}
    ]}
  ]
}
